This is an account of results in patent US6699686B1, “Modified nuclear glucocorticoid receptor, fusion protein, and DNA fragments coding for said receptor and said fusion protein” (Association pour le Development de la Recherche en …, priority 1996, dated 2004).

One assay addresses T1, Cre-LBD[GR(I747/T)] (Homo sapiens, UniProt P04150, I747T).
T1 construct: the region containing the mutated LBD of HG1 [aa 500-777]; Cre recombinase aa 1-343 (bacteriophage P1); F region of the human estrogen receptor (aa 553-595); expressed in transfected cells
T1 sequence (P04150 500-777 I747T): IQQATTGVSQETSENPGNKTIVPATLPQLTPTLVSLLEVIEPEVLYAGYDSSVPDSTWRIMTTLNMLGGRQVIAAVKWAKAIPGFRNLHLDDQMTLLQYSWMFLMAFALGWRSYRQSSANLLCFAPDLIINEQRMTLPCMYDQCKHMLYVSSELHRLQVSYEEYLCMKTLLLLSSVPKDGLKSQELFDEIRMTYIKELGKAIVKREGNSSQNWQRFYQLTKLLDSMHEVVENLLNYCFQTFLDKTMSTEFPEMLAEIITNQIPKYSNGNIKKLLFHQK
Description: PCR test of recombinase activity in HeLa cells cotransfected with pCre-LBD[GR(I747/T)] and pRXRα(LNL). In kind it is cell-based. The following applies: ligand 10^−7 M, 72 hours. On the procedure: [optionally cotransfected with 5 μg of the vector pRXRα^(LNL) for the HeLa cells] with the aid of an electroporator (Bio-Rad gene pulser), set at 200 V and 960 μF. The cells were then inoculated at 10^6 cells per 100 mm dish and treated, if necessary, with ligands.
The products of the reaction were separated on acrylamide gel and stained with ethidium bromide. Lane 1 corresponds to the loading of the 1 kb ladder size marker (GibcoBRL).

The target in the next assay is T2, hGR(I747/T) (Homo sapiens, UniProt P04150, I747T).
T2 construct: The same shift was observed as with the complete GR (I747/T) mutant; expressed in transfected cells
T2 sequence (P04150 1-777 I747T): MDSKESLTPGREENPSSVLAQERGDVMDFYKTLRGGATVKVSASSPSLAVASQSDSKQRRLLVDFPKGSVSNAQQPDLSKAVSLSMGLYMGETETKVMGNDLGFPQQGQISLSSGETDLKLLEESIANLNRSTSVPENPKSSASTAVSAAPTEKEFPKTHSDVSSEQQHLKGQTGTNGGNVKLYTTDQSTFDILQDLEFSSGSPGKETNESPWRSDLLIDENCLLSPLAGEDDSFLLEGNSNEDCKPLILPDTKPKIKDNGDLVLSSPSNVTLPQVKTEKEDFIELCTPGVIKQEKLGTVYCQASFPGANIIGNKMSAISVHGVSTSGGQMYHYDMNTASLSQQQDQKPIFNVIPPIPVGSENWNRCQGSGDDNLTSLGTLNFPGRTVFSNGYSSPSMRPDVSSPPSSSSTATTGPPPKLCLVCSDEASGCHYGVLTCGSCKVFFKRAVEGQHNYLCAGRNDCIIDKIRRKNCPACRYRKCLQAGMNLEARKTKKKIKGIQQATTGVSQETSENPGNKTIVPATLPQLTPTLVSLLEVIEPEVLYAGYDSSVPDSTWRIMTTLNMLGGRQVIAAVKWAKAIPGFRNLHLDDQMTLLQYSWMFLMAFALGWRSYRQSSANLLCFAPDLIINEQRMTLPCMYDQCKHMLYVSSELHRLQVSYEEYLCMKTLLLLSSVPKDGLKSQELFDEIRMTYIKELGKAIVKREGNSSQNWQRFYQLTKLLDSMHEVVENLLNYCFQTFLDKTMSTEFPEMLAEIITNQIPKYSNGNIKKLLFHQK
Nature of the assay: Transcriptional activation of pTAT-tk-Luc luciferase reporter in transiently transfected CV-1 cells. In kind it is cell-based. The following applies: CV-1 cells, pTAT-tk-Luc; for Luciferase activity % hGR (I747/T): 24 h ligand, mean of three independent assays; for EC50 hGR (I747/T): ligand concentration giving 50% of maximum transcriptional response. On the procedure:
The receptors were transiently expressed in GR-free CV-1 cells, conjointly with a luciferase reporter gene under the control of the tyrosine aminotransferase promoter (pTAT-tk-Luc).
After transfection, the cells were incubated for 24 hours with increasing concentrations of Dex, and they were then subjected to an assay of the β-galactosidase and luciferase activities, as described in “Materials and Methods”. The luciferase activity was normalized with the β-galactosidase activity, and the value obtained in the absence of ligand was subtracted for each point. The results were expressed as a percentage of the maximum luciferase activity obtained for each receptor. Each point is the mean±standard deviation of the mean of four separate determinations carried out in duplicate. […] The [^3H] steroid attached was measured after treatment with dextran-coated charcoal. The results presented are those for a single assay carried out in duplicate and representative of three separate assays.
Co-transfections were carried out and dose-response curves were constructed as described in FIG. 2. […] The assays of luciferase and β-galactosidase activity were carried out as described in “Materials and Methods”. The mean values of three independent assays are given in this table. nm=not measurable.
The CV-1 and Cos-7 cells were cultured in Dulbeco's modified Eagle's medium (DMEM) containing 10% (v/v) of fetal calf serum (FCS) (Gibco, Grand Island, N.Y.), in a humidified atmosphere containing 5% CO2. The HeLa cells were cultured under the same conditions. Transient transfections were carried out in 6-well multiplates according to the calcium phosphate procedure already described (42). A reference recombinant plasmid, pCMV-βgal, expressing bacterial β-galactosidase, was transfected conjointly with the receptor expression vector and the corresponding reporter gene so as to correct possible variations in he transfection efficiency. The precipitate was removed by washing after 24 hours, and the cells were kept in DMEX without FCS but containing hormone. After another 24 hours, the cells were rinsed and lysed for 15 minutes with 0.3 ml of lysis buffer [25 mM Tris.phosphate, pH 7.8, 8 mM […], 1% Triton X100, 10% glycerol (48)]. The corresponding luciferase activity as determined on an aliquot fraction (0.1 ml), by evaluation of the luminescence peak (for an integration time of 15 seconds), after injection of 0.1 ml of 1 mM luciferin in an LKB luminometer. The β-galactosidase was determined by the method modified by Bocquel et al. (49), for controlling the efficiency of each transfection.
The reporter gene pTAT-tk-Luc was provided by D. Gagne and was constructed as follows: an intermediate plasmid pTAT was first generated by insertion of the 966 bp EcoRI-BamHI segment obtained from pKT531 [offered freely by T. Grande (50)] into the corresponding sites of the vector pUC19 (Pharmacia). The fragment containing the sequence coding for the firefly luciferase and the thymidine kinase (tk) minimal promoter obtained from the Herpes simplex virus was isolated in the form of a BamHI fragment from pvit-tk-Luc (51) and inserted, downstream of the TAT promoter, into the corresponding site of pTAT. The reporter plasmid pGRE-tk-Luc was constructed by ligation of the fragment of HindIII-BglII digestion of pGRE-tk-CAT (52), which contains a synthetic GRE (AGAACAcagTGTTCT) upstream of the tk minimal promoter, into the HindIII-BglII sites of pLuc (53). The reporter gene p(17M)5-βGlob-Luc has been previously described (54). The reporter plasmid p(17M)5-tata-Luc was constructed from the plasmid p(17M)5-tata-CAT (55) by digestion with XhoI-BamHI and isolation of the fragment containing (17M5)-tata. This fragment was then inserted into the vector pGL2 (Promega) digested with the same restriction enzymes.
(In a reporter assay the amount or activity of a reporter protein is the signal.)

Regarding `C[C@]12C[C@H](O)[C@H]3[C@@H](CCC4=CC(=O)CC[C@@]43C)[C@@H]1CC[C@@H]2C(=O)CO` [Corticosterone, corticosterone], the “recombinase activity (PCR band of recombinant fragment)” value (from here on “recombinase activity”) on Cre-LBD[GR(I747/T)] is listed as “only the fragment corresponding to the wild-type allele can be detected”. On hGR(I747/T), the “transactivation by the I747/T mutant receptor compared with wild-type receptor” value was “suppressed”, the “Luciferase activity % hGR (I747/T)” value was 0% and the “EC50 hGR (I747/T)” value is reported as “nM”.
Regarding `C[C@]12CCC(=O)C=C1CC[C@@H]1[C@@H]2[C@@H](O)C[C@@]2(C)[C@H]1CC[C@]2(O)C(=O)CO` [Cortisol, cortisol], on Cre-LBD[GR(I747/T)], the “recombinase activity” value is reported as “only the fragment corresponding to the wild-type allele can be detected”. For the same compound, on hGR(I747/T), the “transactivation by the I747/T mutant receptor compared with wild-type receptor” value is “greatly reduced” and the “Luciferase activity % hGR (I747/T)” value was found to be 15%.
For `C[C@@H]1C[C@H]2[C@@H]3CCC4=CC(=O)C=C[C@]4(C)[C@@]3(F)[C@@H](O)C[C@]2(C)[C@@]1(O)C(=O)CO` [Dexamethasone, dexamethasone], on hGR(I747/T), the “Luciferase activity % hGR (I747/T)” value was determined as 100%.
On to `C[C@]12CCC(=O)C=C1CC[C@@H]1[C@@H]2[C@@H](O)C[C@]2(C=O)[C@@H](C(=O)CO)CC[C@@H]12` [Aldosterone, aldosterone], for which the “recombinase activity” value on Cre-LBD[GR(I747/T)] is reported as “only the fragment corresponding to the wild-type allele can be detected”. Also, on hGR(I747/T), the “transactivation by the I747/T mutant receptor compared with wild-type receptor” value is “suppressed”, the “Luciferase activity % hGR (I747/T)” value is on record as 0% and the “EC50 hGR (I747/T)” value is reported as “nM”.
